± gives the expanded uncertainty stated by the source.
Settings: 101.33 kPa, Crystal 2, Small (less than 1 g) adiabatic calorimetry

O=S(=O)([O-])[O-].[Sr+2] [sulfuric acid, strontium salt (1:1)]
Settings	molar entropy [J/K/mol]
5 K	0.01272
10 K	0.1188 ± 0.033
15 K	0.4903 ± 0.04
20 K	1.25 ± 0.053
25 K	2.413 ± 0.066
30 K	3.947 ± 0.18
35 K	5.8 ± 0.19
40 K	7.917 ± 0.21
45 K	10.25 ± 0.23
50 K	12.75 ± 0.25
55 K	15.38 ± 0.27
60 K	18.11 ± 0.29
65 K	20.88 ± 0.31
70 K	23.69 ± 0.33
75 K	26.51 ± 0.35
80 K	29.33 ± 0.37
85 K	32.13 ± 0.39
90 K	34.9 ± 0.51
95 K	37.65 ± 0.53
100 K	40.36 ± 0.54
110 K	45.67 ± 0.57
120 K	50.82 ± 0.61
130 K	55.82 ± 0.64
140 K	60.67 ± 0.66
150 K	65.39 ± 0.69
160 K	69.99 ± 0.72
170 K	74.46 ± 0.75
180 K	78.81 ± 0.77
190 K	83.06 ± 0.8
200 K	87.2 ± 0.82
210 K	91.24 ± 0.85
220 K	95.18 ± 0.87
230 K	99.04 ± 0.89
240 K	102.82 ± 0.92
250 K	106.52 ± 0.94
260 K	110.15 ± 0.96
270 K	113.73 ± 0.98
273.15 K	114.84 ± 0.99
280 K	117.23 ± 1
290 K	120.68 ± 1
298.15 K	123.44 ± 1
300 K	124.06 ± 1
310 K	127.38 ± 1.1
320 K	130.64 ± 1.1

— the NIST ThermoML archive (doi:10.1016/j.tca.2013.05.017)
